Test results: patent US20260256751A1, “COMBINATION OF BETA-2-ADRENERGIC RECEPTOR AGONISTS AND GLP-1 RECEPTOR AGONISTS FOR USE IN TREATING HYPERGLYCAEMIA” (ATROGI AB, priority 2023, published 2026)

What was measured:
[1] = test system: differentiated L6-myotubes; conditions: as described in WO 2019/053427, Biological Example 1 therein; cited from earlier work
[2] = test system: differentiated L6-myotubes; conditions: as described in WO 2019/053427, Biological Example 2 therein; cited from earlier work
[3] = test system: male C57Bl/6N mice fed with high-fat, high-sucrose diet; assay: Combination of Compound A and liraglutide in high-fat, high-sucrose diet fed mice (Biological Example 2); type: in vivo; conditions: Compound A hemi-tartrate 1 mg/kg with liraglutide 0.1 mg/kg, subcutaneously, daily for 2 weeks; compared with liraglutide; FIGS. 2-5
Procedure: 2.5 Months old male C57Bl/6N mice were grouped caged (4-5 mice per cage), kept at 30° C. and fed with high-fat, high-sucrose diet (45% fat) for 5.5 months. The mice were divided into four groups (2-3 mice per cage) according to their fasting blood glucose levels, glucose tolerance, body weight, body fat and lean mass, and treated daily for 2 weeks, subcutaneously with either vehicle, liraglutide (0.1 mg/kg), Compound A (1 mg/kg), or a mixture of liraglutide (0.1 mg/kg) and Compound A (1 mg/kg). The mice were fasted for 5 h and fasting blood glucose and fasting serum insulin levels were recorded. Glucose (2.5 g/kg lean mass) was injected ip and glucose levels were recorded after 15, 30, 60, 90 and 120 min. The results were used to calculate HOMA-IR (fasting blood glucose (mM)×fasting insulin (μIU/mL)/22.5) and glucose tolerance (area under the curves 0-120 min over the 5.5 mM blood glucose level).

β2-adrenergic receptor = target: T1, β2-adrenergic receptor (Rattus norvegicus, UniProt P10608); assay: Glucose uptake in the presence of a selective β2-adrenergic receptor inhibitor (Biological Example 1); type: cell-based; conditions: L6-myotubes; Compound A (2HCl salt) 1×10^−5 M in the presence of ICI-118551; FIG. 1
T1 construct: L6-myoblasts were grown in Dulbecco's Modified Eagle's Medium (DMEM); endogenous in cells; host or cells: L6 myoblasts differentiated into myotubes
T1 sequence (P10608 whole entry): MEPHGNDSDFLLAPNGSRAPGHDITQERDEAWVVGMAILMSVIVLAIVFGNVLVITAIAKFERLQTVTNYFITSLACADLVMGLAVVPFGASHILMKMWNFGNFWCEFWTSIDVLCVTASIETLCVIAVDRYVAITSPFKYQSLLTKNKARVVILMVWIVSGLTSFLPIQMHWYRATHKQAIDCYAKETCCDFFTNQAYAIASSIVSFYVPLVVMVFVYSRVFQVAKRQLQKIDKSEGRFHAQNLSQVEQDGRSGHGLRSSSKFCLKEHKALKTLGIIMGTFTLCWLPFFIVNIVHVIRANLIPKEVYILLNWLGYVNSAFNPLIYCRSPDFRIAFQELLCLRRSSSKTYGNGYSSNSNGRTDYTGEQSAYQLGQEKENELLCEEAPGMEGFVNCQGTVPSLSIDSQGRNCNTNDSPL
Procedure: L6-myoblasts were grown in Dulbecco's Modified Eagle's Medium (DMEM) containing 1 g/L glucose supplemented with 10% fetal bovine serum (FBS), 2 mM L-glutamine, 50 U/mL penicillin, 50 g/mL streptomycin and 10 mM HEPES. Cells were plated at 1x 10^5 cells per mL in 24-well plates. After reaching 90% confluence the cells were grown in medium containing 2% FBS for 7 days where upon cells differentiated into myotubes. […] After 1 h 40 min the cells were washed with warm, glucose free medium twice and another portion of agonist was added to the glucose free medium. After another 20 min of incubation the cells were exposed to 50 nM ^3H-2-deoxyglucose for 10 min before washed in ice cold glucose free medium three times and lysed in 400 µl/well 0.2 M NaOH for 1 h at 60° C.

[4] = test system: differentiated L6-myotubes; assay: Glucose uptake screen (Biological example 1 of WO 2019/053427); type: cell-based; conditions: compound at 10 μM, activity relative to isoproterenol at 10 μM, read-out: Biological example 1 of WO 2019/053427 (GU)
Summary of the method: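 Rat L6 myoblasts were differentiated into myotubes over 7 days in 2% FBS, then serum-starved overnight. Cells were stimulated with 1×10^−5 M compound plus β2 antagonist ICI-118551 for 1 h 40 min and re-dosed for 20 min in glucose-free medium. Uptake of 50 nM ^3H-2-deoxyglucose over 10 min was counted after NaOH lysis.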

[5] = test system: differentiated L6-myotubes; assay: cAMP production relative to isoprenaline (Biological example 2 of WO 2019/053427); type: cell-based; conditions: 0.25 h, compound at 10 μM, activity relative to isoproterenol at 10 μM
Summary of the method: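 Differentiated L6 myotubes stimulated 15 min with test compound or isoprenaline, each at final 1×10^−5 M, in HBSS with 1% BSA, 5 mM HEPES, 1 mM IBMX, pH 7.4. cAMP production by the compound expressed relative to that induced by the same concentration of isoprenaline.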

SMILES	glucose uptake [1]	cAMP levels induced [2]	effects on glucose homeostasis (glycemia, glucose tolerance and insulin sensitivity) [3]	receptor mediating the glucose uptake promoted by the compound (β2-adrenergic receptor)	Emax at 10 µM [4] [%]	Emax at 10 µM [5] [%]
CC(C)(C)NC[C@H](O)c1cncc(F)c1 [Compound A, (R)-2-(tert-Butylamino)-1-(5-fluoropyridin-3-yl)ethan-1-ol]	significant glucose uptake	without inducing significant levels of cAMP	additional positive effects	mediated through the β2-adrenergic receptor		
CCC[C@H]1CC[C@@H]([C@@H](O)c2cccc(F)c2)N1 [Compound 131, (S)-[(2S,5S)-5-propyl-2-pyrrolidinyl](m-fluorophenyl)methanol]					50 to 75	< 25
CC(=O)N[C@H]1CC[C@@H](CNC[C@H](O)c2cncc(F)c2)CC1 [Compound 310, N-[(1S,4s)-4-{[(R)-2-(5-fluoro-3-pyridyl)-2-hydroxyethylamino]methyl}cyclohexyl]acetamide]					25 to 50	< 25
CC1(C)C[C@@H]([C@@H](O)c2cncc(F)c2)N1 [Compound 215, (S)-[(S)-4,4-dimethyl-2-azetidinyl](5-fluoro-3-pyridyl)methanol]					25 to 50	< 25
CC(C)(CC[C@H]1CC[C@H](C(=O)O)CC1)NC[C@H](O)c1cccc(F)c1 [Compound 348, (1R,4r)-4-{3-[(R)-2-(m-fluorophenyl)-2-hydroxyethylamino]-3-methylbutyl}cyclohexanecarboxylic acid]					< 25	< 25
CC(C)(C[C@H]1CC[C@H](C(=O)O)CC1)NC[C@H](O)c1cncc(F)c1 [Compound 356, (1R,4r)-4-{2-[(R)-2-(5-fluoro-3-pyridyl)-2-hydroxyethylamino]-2-methylpropyl}cyclohexanecarboxylic acid]					< 25	< 25
CO[C@H]1CC[C@H](CCNC[C@H](O)c2cncc(F)c2)CC1 [Compound 225, (R)-1-(5-fluoro-3-pyridyl)-2-{2-[(1r,4R)-4-methoxycyclohexyl]ethyl-amino}-1-ethanol]					50 to 75	< 25
C[C@H]1CC[C@@H]([C@@H](O)c2cccc(O)c2)N1 (racemic) [Compound 41, Racemic mixture of m-{(R)-[(2R,5R)-5-methyl-2-pyrrolidinyl]hydroxymeth-yl}phenol and m-{(S)-[(2S,5S)-5-methyl-2-pyrrolidinyl]hydroxymeth-yl}phenol]					> 75	< 25
CCCS(=O)(=O)N[C@H]1CC[C@@H](CC(C)(C)NC[C@H](O)c2cncc(F)c2)CC1 [Compound 523, (R)-2-{1,1-dimethyl-2-[(1s,4S)-4-(propylsulfonylamin)cyclohexyl]ethylamino}-1-(5-fluoro-3-pyridyl)-1-ethanol]					50 to 75	< 25
CC12CC(C1)[C@@H]([C@H](O)c1ccccc1F)N2 [Compound 213, (R)-{(S)-1-methyl-2-azabicyclo[2.1.1]hex-3-yl}(o-fluorophenyl)methanol]					> 75	< 25
O[C@@H](c1cccc(F)c1)[C@H]1CC[C@@H](Cc2ccc(Cl)cc2)N1 [Compound 391, (S)-{(2R,5S)-5-[(p-chlorophenyl)methyl]-2-pyrrolidinyl}(m-fluorophenyl)methanol]					50 to 75	< 25
O[C@@H](CNCC[C@H]1CC[C@@H](O)CC1)c1cccc(F)c1 [Compound 297, (R)-1-(m-fluorophenyl)-2-{2-[(1s,4S)-4-hydroxycyclohexyl]ethylamino}-1-ethanol]					50 to 75	< 25
CC(C)(C[C@H]1CC[C@@H](C(=O)O)CC1)NC[C@H](O)c1cncc(F)c1 [Compound 324, (1S,4s)-4-{2-[(R)-2-(5-fluoro-3-pyridyl)-2-hydroxyethylamino]-2-methylpropyl}cyclohexanecarboxylic acid]					25 to 50	< 25
CCC[C@H]1CCC[C@H]([C@H](O)c2ccccc2F)N1 [Compound 93, (R)-[(2R,6S)-6-propyl-2-piperidyl](o-fluorophenyl)methanol]					25 to 50	< 25
CC(C)(C[C@H]1CC[C@H](S(N)(=O)=O)CC1)NC[C@H](O)c1cccc(F)c1 [Compound 516, (1R,4r)-4-{2-[(R)-2-(m-fluorophenyl)-2-hydroxyethylamino]-2-methylpropyl}cyclohexanesulfonamide]					> 75	< 25
